Measurements reported in BindingDB's records for patent US20240124427 (Idorsia Pharmaceuticals, 2024).

Biological target: Galectin-3 (Homo sapiens, UniProt P17931)
Test: Spectrophotometric Assay
Experimental: The inhibitory activity of compounds is determined in competitive binding assays. […] Finally, 25 μL/well of ABTS substrate is added.

Sequence of Galectin-3 (P17931 whole entry): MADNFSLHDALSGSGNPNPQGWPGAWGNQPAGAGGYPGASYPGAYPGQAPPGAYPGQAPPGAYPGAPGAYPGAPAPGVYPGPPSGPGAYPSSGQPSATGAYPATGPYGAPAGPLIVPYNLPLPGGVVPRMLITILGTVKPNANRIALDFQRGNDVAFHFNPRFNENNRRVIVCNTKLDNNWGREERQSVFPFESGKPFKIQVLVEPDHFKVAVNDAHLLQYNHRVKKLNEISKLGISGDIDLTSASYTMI

Row | SMILES | IC50 [nM]
1 | CO[C@@H]1[C@@H](n2cc(-c3cc(F)c(Cl)c(F)c3)nn2)[C@@H](O)[C@@H](CO)O[C@H]1C(=O)N(c1cc(Br)cc(C#N)c1)[C@H]1COC[C@@H]1O [US20240124427, Example 24] | 73
2 | CO[C@@H]1[C@@H](n2cc(-c3cc(F)c(F)c(F)c3)nn2)[C@@H](O)[C@@H](CO)O[C@H]1C(=O)N(c1cc(Br)cc(C#N)c1)[C@@H]1COC[C@H]1O [US20240124427, Example 36] | 67
3 | CO[C@@H]1[C@@H](n2cc(-c3cc(F)c(Cl)c(F)c3)nn2)[C@@H](O)[C@@H](CO)O[C@H]1C(=O)N(c1cc(Br)cc(C#N)c1)[C@@H]1COC[C@H]1O [US20240124427, Example 53] | 46
4 | CO[C@@H]1[C@@H](n2cc(-c3cc(F)c(F)c(F)c3)nn2)[C@@H](O)[C@@H](CO)O[C@H]1C(=O)N(c1cc(Br)cc(C#N)c1)[C@H]1COC[C@@H]1O [US20240124427, Example 7] | 83

Continued, values first:

Row | IC50 [nM] | SMILES
5 | 72 | CO[C@@H]1[C@@H](n2cc(-c3cc(F)c(F)c(F)c3)nn2)[C@@H](O)[C@@H](CO)O[C@H]1C(=O)N(c1cc(Cl)cc(Cl)c1)[C@H]1COC[C@@H]1O [US20240124427, Example 4]
6 | 12 | CO[C@@H]1[C@@H](n2cc(-c3ccc(Br)c(F)c3F)nn2)[C@@H](O)[C@@H](CO)O[C@H]1C(=O)N(c1cc(Cl)cc(Cl)c1)[C@H]1CNC[C@@H]1O [US20240124427, Example 62]
